This note sets out measurements from patent US20230114241A1, “METHODS OF TREATING EPILEPSY USING THE SAME” (Trevena, Inc., priority 2019, published 2023).

Sequence of human sphingosine-1-phosphate receptor 1 (S1P1) (P21453 whole entry): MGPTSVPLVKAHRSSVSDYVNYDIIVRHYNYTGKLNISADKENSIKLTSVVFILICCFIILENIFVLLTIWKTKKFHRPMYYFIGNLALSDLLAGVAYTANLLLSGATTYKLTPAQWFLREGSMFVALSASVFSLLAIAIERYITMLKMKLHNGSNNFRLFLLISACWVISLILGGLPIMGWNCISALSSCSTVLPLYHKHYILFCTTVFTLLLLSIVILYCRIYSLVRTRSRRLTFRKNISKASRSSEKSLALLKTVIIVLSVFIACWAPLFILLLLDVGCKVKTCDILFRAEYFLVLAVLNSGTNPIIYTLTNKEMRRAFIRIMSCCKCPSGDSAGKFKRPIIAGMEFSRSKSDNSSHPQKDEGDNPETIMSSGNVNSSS

The first test concerns the target human sphingosine-1-phosphate receptor 1 (S1P1) (Homo sapiens, UniProt P21453). In words: Inhibition of cAMP production (HTRF cAMP HiRange), S1P1 CHO-K1 cells. Particulars: inhibition of cAMP production, S1P1; read-out: hS1P1 CAMP pEC50 (converted). In kind it is cell-based. The method in brief:
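Intracellular cAMP changes read by TR-FRET (HTRF HiRange, 1 h room temperature) after 30 min compound exposure at 37 °C. Cells: overnight-plated CHO-K1 stably expressing tagged human S1P1 with EA-β-arrestin2. Responses normalized to fingolimod.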
As to `CC(C)(CO)n1nnc2cc(-c3noc(-c4cccnc4F)n3)ccc21` [Compound 643, 2-(5-(5-(2-fluoro-pyridin-3-yl)-1,2,4-oxadiazol-3-yl)-1H-benzo[d][1,2,3]triazol-1-yl)-2-methylpropan-1-ol], the EC50 is greater than 316 nM.

For the molecule `COc1cnccc1-c1nc(-c2ccc3c(c2)nnn3C(C)C)no1` [Compound 606, 3-(1-isopropyl-1H-benzo[d][1,2,3]triazol-5-yl)-5-(3-methoxy-pyridin-4-yl)-1,2,4-oxadiazole], the EC50 was less than 316 nM.

Turning to `CC(C)n1nnc2cc(-c3nc(-c4ccccc4C(F)(F)F)co3)ccc21` [Compound 432, 1-(propan-2-yl)-5-{4-[2-(trifluoromethyl)phenyl]-1,3-oxazol-2-yl}-1H-1,2,3-benzotriazole], the EC50 was less than 316 nM.

Take `COc1ccccc1-c1nc(-c2ccc3c(c2)nnn3C(C)(C)CO)no1` [Compound 623, 2-(5-(5-(2-methoxy-phenyl)-1,2,4-oxadiazol-3-yl)-1H-benzo[d][1,2,3]triazol-1-yl)-2-methyl-propan-1-ol]: the EC50 is greater than 316 nM.

On to `Cc1ccncc1-c1nc(-c2ccc3c(c2)nnn3C(C)(C)CO)no1` [Compound 625, 2-methyl-2-(5-(5-(4-methylpyridin-3-yl)-1,2,4-oxadiazol-3-yl)-1H-benzo[d] [1,2,3]triazol-1-yl)propan-1-ol], for which the EC50 was greater than 316 nM.

Consider `CC(C)Cn1nnc2cc(-c3nc4c(Br)cccc4o3)ccc21` [Compound 461, 4-bromo-2-(1-isobutyl-1H-benzo[d][1,2,3]triazol-5-yl)benzo[d]oxazole], for which the EC50 is greater than 316 nM.

In the case of `CC(C)n1nnc2cc(-c3nc4c(o3)CCc3sccc3-4)ccc21` [Compound 456, 4-[1-(propan-2-yl)-1H-1,2,3-benzotriazol-5-yl]-5-oxa-10-thia-3-azatricyclo[7.3.0.0^2,6] dodeca-1(9),2(6),3,11-tetraene], the EC50 is less than 316 nM.

For the molecule `COc1ccccc1-c1nc(-c2ccc3c(c2)nnn3C(C)C)co1` [Compound 575, 5-[2-(2-methoxy-phenyl)-1,3-oxazol-4-yl]-1-(propan-2-yl)-1H-1,2,3-benzotriazole], the EC50 was less than 316 nM.

The same test, now with this note: inhibition of cAMP production; potency; read-out: hS1P1 CAMP pEC50 (converted).
Consider `CC(C)n1nnc2cc(-c3nc(-c4ccc5nncn5c4)no3)ccc21` [Compound 128, 1-(propan-2-yl)-5-(3-{[1,2,4]triazolo[4,3-a]pyridin-6-yl}-1,2,4-oxadiazol-5-yl)-1H-1,2,3-benzotriazole], for which the EC50 was greater than 316 nM.

Take `COc1ccc(-c2noc(-c3ccc4c(c3)nnn4C3CCCC3)n2)cc1C(F)(F)F` [Compound 197, 1-cyclopentyl-5-{3-[4-methoxy-3-(trifluoromethyl)phenyl]-1,2,4-oxadiazol-5-yl}-1H-1,2,3-benzotriazole]: the EC50 was greater than 316 nM.

Take `Cc1ccccc1-c1noc(-c2ccc3c(cnn3C(C)C)c2)n1` [Compound 329, 5-(1-isopropyl-1H-indazol-5-yl)-3-(o-tolyl)-1,2,4-oxadiazole]: the EC50 is less than 316 nM.

Regarding `C=CCNc1ccc(-c2nc(-c3ccc4[nH]ncc4c3)no2)cc1C#N` [Compound 141, 5-(3-(1H-indazol-5-yl)-1,2,4-oxadiazol-5-yl)-2-(allyl-amino)benzonitrile], the EC50 is less than 316 nM.

Turning to `CC(F)(F)CNc1ccc(-c2nc(-c3ccc4c(c3)CCC(=O)N4)no2)cc1C#N` [Compound 347, 2-[(2,2-difluoropropyl)amino]-5-[3-(2-oxo-1,2,3,4-tetrahydro-quinolin-6-yl)-1,2,4-oxadiazol-5-yl]benzonitrile], the EC50 is less than 316 nM.

Consider `N#Cc1cc(-c2nnc(-c3ccc4[nH]ncc4c3)o2)ccc1NCC(F)F` [Compound 354, 2-[(2,2-difluoro-ethyl)amino]-5-[5-(1H-indazol-5-yl)-l,3,4-oxadiazol-2-yl]benzonitrile], for which the EC50 is less than 316 nM.

Consider `O=C1CC2(CCCCC2)Oc2ccc(-c3nc(-c4cccnc4)no3)cc21` [Compound 41, 6-[3-(pyridin-3-yl)-1,2,4-oxadiazol-5-yl]-3,4-dihydrospiro[1-benzopyran-2,1′-cyclohexane]-4-one], for which the EC50 was greater than 316 nM.

Turning to `CCCn1nnc2cc(-c3nc(-c4cc(C)cc(C)c4)no3)ccc21` [Compound 76, 5-[3-(3,5-dimethyl-phenyl)-1,2,4-oxadiazol-5-yl]-1-propyl-1H-1,2,3-benzotriazole], the EC50 is greater than 316 nM.

Take `CCC1(CC)CC(=O)c2cc(-c3nc(-c4ccc(N)cc4)no3)ccc2O1` [Compound 256, 6-(3-(4-amino-phenyl)-1,2,4-oxadiazol-5-yl)-2,2-diethylchroman-4-one]: the EC50 was less than 316 nM.

In the case of `CC(C)n1nnc2cc(-c3nc(-c4ccccc4Br)no3)ccc21` [Compound 282, 5-[3-(2-bromophenyl)-1,2,4-oxadiazol-5-yl]-1-(propan-2-yl)-1H-1,2,3-benzotriazole], the EC50 was less than 316 nM.

For the molecule `Cc1ccccc1-c1noc(-c2ccc3c(c2)nnn3C2CCOCC2)n1` [Compound 95, 5-[3-(2-methylphenyl)-1,2,4-oxadiazol-5-yl]-1-(oxan-4-yl)-1H-1,2,3-benzotriazole], the EC50 was greater than 316 nM.

In the case of `CC(C)n1ccc2cc(-c3nc(-c4ccccc4Br)no3)ccc21` [Compound 322, 3-(2-bromophenyl)-5-(1-isopropyl-1H-indol-5-yl)-1,2,4-oxadiazole], the EC50 was less than 316 nM.

As for `CC(F)CNc1ccc(-c2nc(-c3ccc4c(c3)CCC(=O)N4)no2)cc1C#N` (stereo not shown) [Compound 348, 2-[(2-fluoropropyl)amino]-5-[3-(2-oxo-1,2,3,4-tetrahydroquinolin-6-yl)-1,2,4-oxadiazol-5-yl]benzonitrile], the EC50 is less than 316 nM.

Regarding `Brc1ccccc1-c1nc(-c2ccc3c(c2)nnn3C2CCCCC2)no1` [Compound 115, 5-(2-bromophenyl)-3-(1-cyclohexyl-1H-benzo[d][1,2,3]triazol-5-yl)-1,2,4-oxadiazole], the EC50 is less than 316 nM.

Turning to `Cc1ccsc1-c1noc(-c2ccc3c(c2)nnn3CC(C)C)n1` [Compound 75, 1-(2-methylpropyl)-5-[3-(3-methylthiophen-2-yl)-1,2,4-oxadiazol-5-yl]-1H-1,2,3-benzotriazole], the EC50 was less than 316 nM.

In the case of `C=CCNc1ccc(-c2nc(-c3ccc4[nH]cnc4c3)no2)cc1C#N` [Compound 177, 5-(3-(1H-benzo[d]imidazol-5-yl)-1,2,4-oxadiazol-5-yl)-2-(allylamino)benzonitrile], the EC50 is less than 316 nM.

Consider `CCC1(CC)CC(=O)c2cc(-c3nc(-c4ccc(O)cc4)no3)ccc2O1` [Compound 72, 2,2-diethyl-6-[3-(4-hydroxyphenyl)-1,2,4-oxadiazol-5-yl]chroman-4-one], for which the EC50 was less than 316 nM.

In the case of `Cc1ccccc1-c1noc(-c2ccc3c(c2)nnn3CC(F)F)n1` [Compound 182, 1-(2,2-difluoroethyl)-5-[3-(2-methylphenyl)-1,2,4-oxadiazol-5-yl]-1H-1,2,3-benzotriazole], the EC50 was less than 316 nM.

Consider `FC(F)Oc1ccc(-c2noc(-c3ccc4c(c3)nnn4C3CCCC3)n2)cc1` [Compound 80, 1-cyclopentyl-5-{3-[4-(difluoromethoxy)phenyl]-1,2,4-oxadiazol-5-yl}-1H-1,2,3-benzotriazole], for which the EC50 is less than 316 nM.

For `CC(C)n1nnc2cc(-c3nc(Cc4ccccc4)no3)ccc21` [Compound 88, 5-(3-benzyl-1,2,4-oxadiazol-5-yl)-1-(propan-2-yl)-1H-1,2,3-benzotriazole], the EC50 was greater than 316 nM.
